The values below come from EP3839043A1, “SCREENING METHODS FOR COMPOUNDS MODULATING POLYAMINE TRANSPORT” (Katholieke Universiteit Leuven, priority 2019, dated 2021).

The target in this assay is T1, Purified ATP13A2 (Homo sapiens, UniProt Q9NQ11).
T1 sequence (Q9NQ11 1-1175 isoform Q9NQ11-3): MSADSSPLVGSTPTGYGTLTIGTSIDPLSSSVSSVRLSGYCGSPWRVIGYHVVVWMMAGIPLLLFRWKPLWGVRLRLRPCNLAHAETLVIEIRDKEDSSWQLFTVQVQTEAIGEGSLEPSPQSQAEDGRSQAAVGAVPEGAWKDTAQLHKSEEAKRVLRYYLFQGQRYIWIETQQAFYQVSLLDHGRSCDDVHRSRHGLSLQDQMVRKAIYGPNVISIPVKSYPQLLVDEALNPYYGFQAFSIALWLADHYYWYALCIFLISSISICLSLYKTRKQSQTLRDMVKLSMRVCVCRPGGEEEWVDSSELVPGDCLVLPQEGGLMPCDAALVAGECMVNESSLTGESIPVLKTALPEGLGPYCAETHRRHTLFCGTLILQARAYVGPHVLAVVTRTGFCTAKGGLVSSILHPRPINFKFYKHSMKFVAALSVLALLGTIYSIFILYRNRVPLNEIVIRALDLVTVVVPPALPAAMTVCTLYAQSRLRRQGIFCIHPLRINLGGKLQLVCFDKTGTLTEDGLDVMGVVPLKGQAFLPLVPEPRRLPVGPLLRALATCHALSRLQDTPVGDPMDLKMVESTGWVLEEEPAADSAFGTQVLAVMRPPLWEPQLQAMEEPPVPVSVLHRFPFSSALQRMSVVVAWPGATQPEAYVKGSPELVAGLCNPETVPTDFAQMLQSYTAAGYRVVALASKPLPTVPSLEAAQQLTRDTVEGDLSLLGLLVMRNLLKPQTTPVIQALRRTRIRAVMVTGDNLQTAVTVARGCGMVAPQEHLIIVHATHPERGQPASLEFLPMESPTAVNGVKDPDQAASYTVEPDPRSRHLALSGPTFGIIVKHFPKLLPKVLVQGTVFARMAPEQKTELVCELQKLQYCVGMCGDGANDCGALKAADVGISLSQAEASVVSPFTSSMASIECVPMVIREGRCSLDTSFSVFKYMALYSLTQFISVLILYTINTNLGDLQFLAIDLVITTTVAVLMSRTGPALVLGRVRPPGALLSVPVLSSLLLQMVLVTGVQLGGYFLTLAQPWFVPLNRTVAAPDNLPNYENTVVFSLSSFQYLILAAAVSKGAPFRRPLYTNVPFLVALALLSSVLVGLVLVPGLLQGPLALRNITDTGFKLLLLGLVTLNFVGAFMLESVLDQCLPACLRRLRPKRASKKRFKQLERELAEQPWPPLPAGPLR
Description: ATPase assay (ADP-Glo Max), purified ATP13A2 from yeast expression system. Also noted: we obtained >95% pure, full length and solubilized ATP13A2; biotin acceptor domain (BAD) tag behind a thrombin cleavage site (C, cleaved yes); made in house; host or cells: S. cerevisiae W303-1B/Gal4-ΔPep4, pYeDP60 vector. Particulars: for Vmax ± SEM: Purified ATP13A2 with 125 µM PA and 125 µM PI(3,5)P2. The class given is biochemical. The method, then:
ATPase assay - The ATPase activity of ATP13A2 was assessed using a commercially available luminescence assay (ADP-Glo Max assay, Promega) that monitors the production of ADP via luciferase activity. The reactions were performed for 30 min (37°C) in a final volume of 25 µl. The assay reaction mixture contained 50 mM MOPS-KOH (pH 7), 100 mM KCI, 11 mM MgCl2, 1 mM DTT, 195 µM DDM, various concentrations of the indicated compound, and either microsomes (5 µg) harvested from SH-SY5Y cells overexpressing ATP13A2 (WT or mutants) or purified ATP13A2 (0.5 µg). When purified ATP13A2 was used, we included 125 µM PA, 125 µM PI(3,5)P2 and 19.5 µM DDM in the reaction buffer. The assay was started by the addition of 5 mM ATP and was terminated by adding 25 µl of ADP-Glo Reagent. The 96-well plate was then incubated for 40 min at room temperature, followed by the addition of 50 µl of ADP-Glo Max Detection Reagent. After 40 min, luminescence was detected using a FlexStation 3.0 system (Molecular Devices). Dose-response curves and n/Km/Vmax values were calculated using GraphPad Prism Software (GraphPad Software Inc.).
Transformation and overexpression of ATP13A2 in yeast - The S. cerevisiae W303-1B/Gal4-ΔPep4 strain (leu2-3, his3-11,15, trp1-1::TRP1-GAL10-GAL4, ura3-1, ade2-1, canr, cir^+, ΔPep4 MAT; a kind gift from Rosa Lopez Marques) was transformed according to the lithium acetate/single-stranded carrier DNA/polyethylene glycol method [Gietz, R. D. & Woods, R. A. Methods Enzymol 350, 87-96 (2002)], with the pYeDP60 vector containing a yeast codon optimized version of human ATP13A2 variant 2 (WT or the catalytically dead E343A mutant) followed by a thrombin cleavage site and a C-terminal BAD tag [Azouaoui, H. et al. PLoS One 9, e112176, (2014); Jidenko, M. et al.Protein Expr Purif 48, 32-42, (2006)]. The transformation mixture was grown for 48 h at 30°C on minimal medium agar plates lacking uracil (0.54% yeast nitrogen base without amino acids, 0.12% yeast drop-out mix without Ura, 2% glucose, and 2% agar) to select yeast colonies that acquired the plasmid. These colonies were then cultured in 20 ml of MM-Ura medium (0.67% yeast nitrogen base without amino acids, 0.19% yeast drop-out mix without Ura, and 2% glucose) and grown for 24 h at 28°C and 200 rpm. The MM-Ura yeast pre-culture was used to inoculate 100 ml of MM-Ura medium to a final OD600 of 0.2, followed by a 12 h incubation period (28°C and 200 rpm). The second pre-culture was inoculated into 4.5 l of YPGE2X medium (2% yeast extract, 2% bactopeptone, 1% glucose, and 2.7% ethanol) to a final OD600 of 0.05 and grown for 36 h (28°C and 175 rpm). ATP13A2-BAD expression was induced with 2% galactose, followed by a second galactose induction 12 h later. After another 12 h, the pellet was collected (1,000 x g; 10 min; 4°C).
Yeast membrane preparation - Yeast cells were broken with glass beads using a BeadBeater (BioSpec products). The lysis buffer contained 50 mM Tris-HCI (pH 7.5), 1 mM EDTA, 0.6 M sorbitol, 1 mM phenylmethylsulfonyl fluoride and SigmaFast protease inhibitor. To remove cell debris and nuclei, the crude extract was centrifuged at 2,000 x g for 20 min (4°C). The supernatant (S1) was centrifuged at 20,000 x g for 20 min (4°C) to pellet the heavy membrane fraction (P2), and the resulting supernatant (S2) was further centrifuged at 200,000 x g for 1 h (4°C). The resulting pellet (i.e., the light membrane fraction, P3) was resuspended in 20 mM HEPES-Tris (pH 7.4), 0.3 M sucrose and 0.1 mM CaCl2. The total protein concentration was determined using a Bradford assay (B6916, Sigma-Aldrich).
ATP13A2-BAD purification - The method used to purify ATP13A2 was based on the purification of overexpressed Drs2p from yeast membranes. Yeast P3 membranes were diluted to 5 mg of total protein/ml in SSR buffer (50 mM MOPS-KOH (pH 7), 100 mM KCI, 20% glycerol, 5 mM MgCl2, 1 mM DTT, and SigmaFast protease inhibitor cocktail) and solubilized using DDM, with a detergent to protein ratio of 1:1.

With `NCCCCNCCCN` [Spermidine, spermidine], the “Vmax ± SEM” value came out at 194 ± 26 nmol ADP/mg/min.
For `NCCCNCCCCNCCCN` [Spermine, spermine], the “Vmax ± SEM” value was 159 ± 10 nmol ADP/mg/min. Besides, the “ATPase activity of purified ATP13A2” value (indicated SPM concentrations) is on record as “stimulated the ATPase activity”.
